Experimental findings from PubChem BioAssay (NCI) are described below.

Test systems include IGROV1 ovarian; U251 CNS; OVCAR-3 ovarian; DU-145 prostate; SF-268 CNS; MCF7 breast; SNB-75 CNS; HCT-15 colon; ACHN renal; KM12 colon; MDA-N; M14 melanoma; LOX IMVI melanoma.
What all share (assay): NCI tumour cell line growth inhibition, 48 h

SMILES strings stand for the structures. Where “and” joins values, the source holds several entries; their conditions need not be identical. Identical values can stand only once.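 Compound exposure: 48 hours, 5 concentrations, 96-well plates. Here, GI50 denotes the concentration required for 50% inhibition of growth. Definition used: TGI = concentration required for complete inhibition of growth.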

For the compound `CCOC(=O)CNC(=O)CNC(=O)CNC(=O)CNNc1c(OCc2ccccc2)c(=O)c1=O`, the TGI in the assay on IGROV1 ovarian, with U251 CNS, in the assay on OVCAR-3 ovarian, in the assay with DU-145 prostate, in the assay on SF-268 CNS and with MCF7 breast was above 100 µM each time. For the same compound, the TGI with SNB-75 CNS, in the assay on HCT-15 colon, in the assay with ACHN renal, with KM12 colon, in the assay with MDA-N and in the assay with M14 melanoma was above 100 µM throughout.

In the case of `N#CCN1CCN(CC#N)CCN(CC#N)CCN(CC#N)CC1`, the TGI with IGROV1 ovarian, in the assay on U251 CNS, in the assay on OVCAR-3 ovarian, with DU-145 prostate, with SF-268 CNS and with LOX IMVI melanoma was above 100 µM throughout. Also, the TGI with MCF7 breast, in the assay with SNB-75 CNS, in the assay with ACHN renal, in the assay with KM12 colon, in the assay on MDA-N and in the assay on M14 melanoma was above 100 µM throughout.

Consider `Cn1c(-c2cccs2)cc(-c2ccsc2)c1-c1cccs1`, for which the TGI with IGROV1 ovarian, in the assay on U251 CNS, in the assay with OVCAR-3 ovarian, in the assay on DU-145 prostate, in the assay with SF-268 CNS and in the assay on MCF7 breast was above 100 µM each time. The TGI with SNB-75 CNS, in the assay with HCT-15 colon, in the assay with ACHN renal, with KM12 colon, in the assay on MDA-N and in the assay with M14 melanoma was above 100 µM each time.

Regarding `C=CCN1C(=O)/C(=C/c2ccc(OC)cc2)N=C1SC1OC(COC(C)=O)C(OC(C)=O)C(OC(C)=O)C1OC(C)=O` (stereo unspecified), the GI50 with IGROV1 ovarian is 20.4 µM and 75.4 µM; in the assay with U251 CNS it was 14.8 µM and 99.1 µM; with OVCAR-3 ovarian it was 13.5 µM and 58.2 µM; in the assay with LOX IMVI melanoma, 21.1 µM and 43.1 µM; with MCF7 breast it was 11.7 µM and > 100 µM; in the assay on ACHN renal, 15.4 µM and 77.3 µM. In addition, the GI50 in the assay on KM12 colon was 21.4 µM and > 100 µM. Further, the TGI with IGROV1 ovarian was above 100 µM; in the assay with U251 CNS it was 58.8 µM and > 100 µM; in the assay on OVCAR-3 ovarian, 30 µM and > 100 µM; with DU-145 prostate, 39.2 µM and > 100 µM; in the assay with LOX IMVI melanoma it was above 100 µM; with MCF7 breast, above 100 µM. The TGI was 40.7 µM and > 100 µM in the assay on SNB-75 CNS; above 100 µM in the assay on HCT-15 colon; 32.3 µM and > 100 µM in the assay on ACHN renal; 62.5 µM and > 100 µM in the assay on KM12 colon; above 100 µM in the assay on MDA-N; above 100 µM in the assay on M14 melanoma.

On to `CCN(CC)c1ccc2cc(-c3csc(C)n3)c(=O)oc2c1`, for which the TGI with IGROV1 ovarian, in the assay on U251 CNS, with DU-145 prostate, with SF-268 CNS, in the assay on LOX IMVI melanoma and in the assay with MCF7 breast was above 100 µM throughout. In addition, the TGI is 9.42 µM with SNB-75 CNS; above 100 µM with HCT-15 colon; above 100 µM in the assay on ACHN renal; above 100 µM in the assay on KM12 colon; above 100 µM in the assay with MDA-N; above 100 µM in the assay on M14 melanoma.

For `CCNC1=C(NC(=O)c2ccc(OC)cc2)C(=O)c2ccccc2C1=O`, the TGI in the assay on IGROV1 ovarian was above 100 µM; in the assay on U251 CNS it was above 100 µM; with OVCAR-3 ovarian, 87.7 µM; with DU-145 prostate it was above 100 µM; in the assay with SF-268 CNS, above 100 µM; in the assay with MCF7 breast it was above 100 µM. The TGI is above 100 µM with SNB-75 CNS; above 100 µM in the assay on HCT-15 colon; above 100 µM in the assay with ACHN renal; above 100 µM with KM12 colon; above 100 µM with MDA-N; 55.9 µM with M14 melanoma.

Regarding `Cc1ncc([N+](=O)[O-])n1CCNC(=O)Cn1ccnc1[N+](=O)[O-]`, the TGI in the assay on IGROV1 ovarian, in the assay on U251 CNS, in the assay on OVCAR-3 ovarian, in the assay on DU-145 prostate, with SF-268 CNS and in the assay with MCF7 breast was above 100 µM in each case. The TGI in the assay with SNB-75 CNS, in the assay on HCT-15 colon, in the assay with ACHN renal, in the assay on KM12 colon, with MDA-N and in the assay with M14 melanoma was above 100 µM throughout.

As to `CC(=O)c1sc2n(C)c(=O)c3ccccc3[n+]2c1C`, the TGI in the assay on IGROV1 ovarian, with U251 CNS, with OVCAR-3 ovarian, in the assay on DU-145 prostate, in the assay on SF-268 CNS and with LOX IMVI melanoma was above 100 µM in each case. For the same compound, the TGI in the assay on MCF7 breast, in the assay on HCT-15 colon, in the assay on ACHN renal, with KM12 colon, with MDA-N and with M14 melanoma was above 100 µM each time.

`Cc1cc(C)nc(NS(=O)(=O)c2ccc(Nc3nnc(/C=C/c4c(O)ccc5ccccc45)c(=O)n3N)cc2)n1`: the TGI with IGROV1 ovarian is above 100 µM; in the assay on OVCAR-3 ovarian, 56 µM; in the assay with DU-145 prostate it was above 100 µM; with SF-268 CNS, above 100 µM; in the assay on MCF7 breast it was 45.7 µM; in the assay with SNB-75 CNS, 55.9 µM. The TGI with HCT-15 colon was determined as 30.9 µM; in the assay with ACHN renal it was 53.8 µM; in the assay with MDA-N, 81.6 µM; with M14 melanoma, 58.5 µM.

Turning to `Brc1ccc(N=Nc2ccc3ccccc3n2)cc1`, the TGI in the assay with IGROV1 ovarian is 65.5 µM; with U251 CNS it was 36.2 µM; with DU-145 prostate, above 100 µM; in the assay with SF-268 CNS it was 94 µM; with MCF7 breast, above 100 µM; in the assay with SNB-75 CNS it was 40.6 µM. The TGI is above 100 µM with HCT-15 colon; 31.2 µM with ACHN renal; above 100 µM with KM12 colon; above 100 µM with MDA-N; above 100 µM in the assay on M14 melanoma.

As to `Oc1ccccc1-c1n[nH]c(-c2ccccc2O)n1`, the TGI in the assay with IGROV1 ovarian, with U251 CNS, with DU-145 prostate, with SF-268 CNS, in the assay with LOX IMVI melanoma and with MCF7 breast was above 100 µM throughout. Further, the TGI with SNB-75 CNS was above 100 µM; in the assay on HCT-15 colon, above 33.6 µM; in the assay with ACHN renal, above 100 µM; with KM12 colon, above 100 µM; with MDA-N, above 100 µM; in the assay with M14 melanoma, above 100 µM.

In the case of `N#Cc1nc(-c2ccc(-c3nc(C#N)c(N)o3)cc2)oc1N`, the TGI in the assay with IGROV1 ovarian, with DU-145 prostate, in the assay on SF-268 CNS, with LOX IMVI melanoma, in the assay with MCF7 breast and in the assay on SNB-75 CNS was above 10 µM in each case. Besides, the TGI with HCT-15 colon, with ACHN renal, in the assay with KM12 colon, with MDA-N and in the assay with M14 melanoma was above 10 µM in each case.

For `CC1CN=C(NS(=O)(=O)c2cc(C(=O)Nc3ccccc3)c(Cl)cc2S)NN1` (stereo unspecified), the TGI in the assay with IGROV1 ovarian was 83.3 µM; in the assay on U251 CNS, above 100 µM; in the assay on OVCAR-3 ovarian, above 100 µM; with DU-145 prostate it was above 100 µM; in the assay with SF-268 CNS it was above 100 µM; with LOX IMVI melanoma, above 100 µM. The TGI was above 100 µM in the assay with MCF7 breast; above 100 µM with HCT-15 colon; above 100 µM in the assay with ACHN renal; above 100 µM in the assay on KM12 colon; 71.5 µM with MDA-N; above 100 µM in the assay with M14 melanoma.

As for `CC1(Cc2cc3c(cc2C2(c4ccc([N+](=O)[O-])cc4)OCCO2)OCO3)OCCO1`, the TGI in the assay with IGROV1 ovarian, with U251 CNS, in the assay with OVCAR-3 ovarian, in the assay on DU-145 prostate, with SF-268 CNS and in the assay with LOX IMVI melanoma was above 100 µM throughout. For the same compound, the TGI in the assay on MCF7 breast, with HCT-15 colon, with ACHN renal, in the assay with KM12 colon, with MDA-N and in the assay with M14 melanoma was above 100 µM throughout.

For `O=C(/N=C1/OC(CN2CCOCC2)CN1C(=O)Nc1ccccc1)Nc1ccccc1` (stereo unspecified), the TGI with IGROV1 ovarian, in the assay with U251 CNS, in the assay on DU-145 prostate, in the assay on SF-268 CNS, in the assay with LOX IMVI melanoma and in the assay with MCF7 breast was above 100 µM each time. Further, the TGI in the assay on SNB-75 CNS, in the assay with HCT-15 colon, in the assay with ACHN renal, in the assay with KM12 colon, in the assay with MDA-N and with M14 melanoma was above 100 µM in each case.

For `Oc1ccc2ccccc2c1NCn1nc(CCCCCCCCc2nn(CNc3c(O)ccc4ccccc34)c(=S)o2)oc1=S`, the TGI in the assay on IGROV1 ovarian, with U251 CNS, in the assay with DU-145 prostate, with SF-268 CNS, in the assay on MCF7 breast and with SNB-75 CNS was above 100 µM each time. Besides, the TGI in the assay with HCT-15 colon, with ACHN renal, in the assay with KM12 colon, with MDA-N and in the assay on M14 melanoma was above 100 µM each time.

On to `CC(CC(C)[C@H]1CCC2[C@H]3C(CC(=O)[C@@]21C)[C@@]1(C)CCC(O)C[C@H]1C[C@@H]3O)C(=O)O` (stereo partly specified), for which the TGI in the assay on IGROV1 ovarian, with U251 CNS, in the assay with DU-145 prostate, in the assay with SF-268 CNS, in the assay on LOX IMVI melanoma and with MCF7 breast was above 100 µM each time. The TGI with SNB-75 CNS, in the assay on HCT-15 colon, in the assay with ACHN renal, in the assay on KM12 colon, in the assay with MDA-N and in the assay on M14 melanoma was above 100 µM throughout.
